Measurements: ChEMBL document CHEMBL5038623, “Synthesis and bioactivities of new N-terminal dipeptide mimetics with aromatic amide moiety: Broad-spectrum antibacterial activity and high antineoplastic activity” (Eur J Med Chem, 2022)
Values after ≈ are worked out from the molar mass of the structure shown. Values belong to the molecule of their own block, whether it stands above or below them. Active and inactive are the calls of the source. No cut-off for these calls is given here.

Assays:
Escherichia coli [1] = experiment: Antibacterial activity against Escherichia coli ATCC25922 assessed as reduction in microbial growth after 24 hrs by broth dilution method; type: functional; details: ATCC 25922
Staphylococcus aureus [2] = experiment: Antibacterial activity against Staphylococcus aureus ATCC 6538 assessed as reduction in microbial growth after 24 hrs by broth dilution method; type: functional
Klebsiella pneumoniae = experiment: Antibacterial activity against Klebsiella pneumoniae ATCC 700603 assessed as reduction in microbial growth after 24 hrs by broth dilution method; type: functional
Staphylococcus aureus [3] = experiment: Antibacterial activity against methicillin-resistant Staphylococcus aureus ATCC 33591 assessed as MIC incubated for 12 hrs
[4] = Selectivity index, HC50 for hemolytic activity in rabbit RBC to MIC for antibacterial activity against methicillin-resistant Staphylococcus aureus ATCC 33591; type: toxicity; details: rabbit red blood cells (RBC), read-out: Selectivity Index
Escherichia coli [5] = experiment: Antibacterial activity against Escherichia coli ATCC25922 assessed as zone of inhibition incubated for 12 hrs by disc diffusion method; type: functional, ATCC 25922
Staphylococcus aureus [6] = experiment: Antibacterial activity against Staphylococcus aureus ATCC 6538 assessed as zone of inhibition incubated for 12 hrs by disc diffusion method; type: functional
[7] = Hemolytic activity in rabbit RBC measured after 1 hrs by microplate reader assay; type: toxicity, cell-based, Oryctolagus cuniculus, Erythrocyte; details: rabbit red blood cells (RBC)
SGC-7901 [8] = experiment: Cytotoxicity against human SGC-7901 cells assessed as reduction in cell viability after 24 hrs by MTT assay; type: functional, cell-based; details: SGC-7901, 24 h
Escherichia coli [9] = experiment: Bactericidal activity against Escherichia coli at 2MIC measured after 1 hrs by time-kill dilution assay relative to control; type: functional
Escherichia coli [10] = experiment: Bactericidal activity against Escherichia coli at 4MIC measured after 1 hrs by time-kill dilution assay relative to control; type: functional
Escherichia coli [11] = experiment: Bactericidal activity against Escherichia coli measured after 7 hrs by time-kill dilution assay relative to control; type: functional, organism-based
Staphylococcus aureus [12] = experiment: Antibacterial activity against Staphylococcus aureus incubated with 50% plasma (unknown origin) measured after 4 hrs; type: functional, organism-based
Staphylococcus aureus [13] = experiment: Antibacterial activity against Staphylococcus aureus incubated with 50% plasma (unknown origin) measured after 8 hrs; type: functional
Staphylococcus aureus [14] = experiment: Antibacterial activity against Staphylococcus aureus assessed as fold change of bacterial growth inhibition incubated with 50% plasma (unknown origin); type: functional
Staphylococcus aureus [15] = experiment: Antibacterial activity against Staphylococcus aureus assessed as fold change of bacterial growth inhibition incubated with 50% blood (unknown origin); type: functional
Staphylococcus aureus [16] = experiment: Antibacterial activity against Staphylococcus aureus assessed as bacterial growth inhibition incubated with 50% serum (unknown origin); type: functional, organism-based
Staphylococcus aureus [17] = experiment: Antibacterial activity against Staphylococcus aureus at sub-MIC measured treated over 16 serial passages after 24 hrs by resistance development assay; type: functional, organism-based
Escherichia coli [18] = experiment: Antibacterial activity against Escherichia coli at sub-MIC treated over 16 serial passages measured after 24 hrs by resistance development assay; type: functional, organism-based
Escherichia coli [19] = experiment: Antibiofilm activity against Escherichia coli at 20 ug/ml after 72 hrs by crystal violet staining based assay; type: functional; details: dose 20 µg/ml
Escherichia coli [20] = experiment: Antibiofilm activity against Escherichia coli at 40 ug/ml after 72 hrs by crystal violet staining based assay; type: functional; details: dose 40 µg/ml
Escherichia coli [21] = experiment: Antibiofilm activity against Escherichia coli at 80 ug/ml after 72 hrs by crystal violet staining based assay; type: functional; details: dose 80 µg/ml
Escherichia coli [22] = experiment: Antibiofilm activity against Escherichia coli at 160 ug/ml after 72 hrs by crystal violet staining based assay; type: functional; details: dose 160 µg/ml
Escherichia coli [23] = experiment: Antibiofilm activity against Escherichia coli at 320 ug/ml after 72 hrs by crystal violet staining based assay; type: functional; details: dose 320 µg/ml
Staphylococcus aureus [24] = experiment: Antibiofilm activity against Staphylococcus aureus at 80 ug/ml after 24 hrs by crystal violet staining based assay; type: functional; details: dose 80 µg/ml
Staphylococcus aureus [25] = experiment: Antibiofilm activity against Staphylococcus aureus at 160 ug/ml after 24 hrs by crystal violet staining based assay; type: functional; details: dose 160 µg/ml
Staphylococcus aureus [26] = experiment: Antibiofilm activity against Staphylococcus aureus at 320 ug/ml after 24 hrs by crystal violet staining based assay; type: functional; details: dose 320 µg/ml
Staphylococcus aureus [27] = experiment: Bactericidal activity against Staphylococcus aureus assessed as changes in cell morphology incubated for 3 hrs by SEM analysis; type: functional, organism-based
Escherichia coli [28] = experiment: Bactericidal activity against Escherichia coli assessed as changes in cell morphology incubated for 3 hrs by SEM analysis; type: functional, organism-based
SGC-7901 [29] = experiment: Induction of apoptosis in human SGC-7901 cells assessed as apoptosis rate at 5 ug/ml incubated for 24 hrs by annexin V-FITC/propidium iodide staining based flow cytometric analysis (reference value: 7.44%); type: functional; details: dose 5 µg/ml
SGC-7901 [30] = experiment: Induction of apoptosis in human SGC-7901 cells assessed as apoptosis rate at 25 ug/ml incubated for 24 hrs by annexin V-FITC/propidium iodide staining based flow cytometric analysis (reference value: 7.44%); type: functional; details: dose 25 µg/ml
SGC-7901 [31] = experiment: Induction of apoptosis in human SGC-7901 cells assessed as apoptosis rate level at 50 ug/ml incubated for 24 hrs by annexin V-FITC/propidium iodide staining based flow cytometric analysis (reference value: 7.44%); type: functional; details: dose 50 µg/ml
L929 [32] = experiment: Cytotoxicity against mouse L929 cells assessed as reduction in cell viability at 31.5 to 125 ug/ml incubated for 24 hrs by MTT assay; type: toxicity, cell-based; details: l929, 24 h, at 31.5 to 125 µg/mL, dose 31.5-125 µg/ml
L929 [33] = experiment: Cytotoxicity against mouse L929 cells assessed as reduction in cell viability at 1000 ug/ml incubated for 24 hrs by MTT assay; type: toxicity, cell-based; details: l929, 24 h, at 1000 µg/mL
L929 [34] = experiment: Cytotoxicity against mouse L929 cells assessed as reduction in cell viability at 15.6 ug/ml incubated for 24 hrs by MTT assay; type: toxicity, cell-based; details: l929, 24 h, dose 15.6 µg/ml
Escherichia coli [35] = experiment: Antibacterial activity against Escherichia coli assessed as fold change of bacterial growth inhibition incubated with 50% plasma (unknown origin); type: functional
Escherichia coli [36] = experiment: Antibacterial activity against Escherichia coli assessed as fold change of bacterial growth inhibition incubated with 50% blood (unknown origin); type: functional
Escherichia coli [37] = experiment: Antibacterial activity against Escherichia coli assessed as bacterial growth inhibition incubated with 50% serum (unknown origin); type: functional, organism-based

Compound: C[C@H]1COc2c(N3CCN(C)CC3)c(F)cc3c(=O)c(C(=O)O)cn1c23.C[C@H]1COc2c(N3CCN(C)CC3)c(F)cc3c(=O)c(C(=O)O)cn1c23.O [LEVOFLOXACIN]
- MIC (Escherichia coli [1]): 2.5 µg/mL
- MIC (Staphylococcus aureus [2]): 1.25 µg/mL
- MIC (Klebsiella pneumoniae): < 0.63 µg/mL
- MIC (Staphylococcus aureus [3]): 1.25 µg/mL

Compound: CCCCCCNC(=O)[C@@H](N)C(C)C
- selectivity ratio [4]: 10
- MIC (Escherichia coli [1]): 20 µg/mL
- MIC (Staphylococcus aureus [2]): 39 µg/mL
- MIC (Klebsiella pneumoniae): 78 µg/mL
- diameter of the inhibition zone (DIZ) (Escherichia coli [5]): 16.4 mm
- diameter of the inhibition zone (DIZ) (Staphylococcus aureus [6]): 12 mm
- HC50 at 1 h [7]: 392 µg/mL
- MIC (Staphylococcus aureus [3]): 78 µg/mL (≈ 389 µM)

- MIC (Escherichia coli [1]): > 1250 µg/mL
- MIC (Staphylococcus aureus [2]): > 1250 µg/mL
- MIC (Klebsiella pneumoniae): > 1250 µg/mL
Compound: CC(C)[C@H](N)C(=O)Nc1ccccc1

- MIC (Escherichia coli [1]): > 1250 µg/mL
- MIC (Staphylococcus aureus [2]): > 1250 µg/mL
- MIC (Klebsiella pneumoniae): > 1250 µg/mL
Compound: CC(C)C(NC(=O)[C@H](N)Cc1ccccc1)C(=O)O (stereo partly drawn)
- diameter of the inhibition zone (DIZ) (Escherichia coli [5]): <6 mm
- diameter of the inhibition zone (DIZ) (Staphylococcus aureus [6]): <6 mm

Compound: C#Cc1ccc(NC(=O)[C@@H](N)C(C)C)cc1
- selectivity ratio [4]: 356
- IC50 (SGC-7901 [8]): 70.8 µg/mL (≈ 327 µM)
- MIC (Escherichia coli [1]): 5 µg/mL
- MIC (Staphylococcus aureus [2]): 2.5 µg/mL
- MIC (Klebsiella pneumoniae): 5 µg/mL
- diameter of the inhibition zone (DIZ) (Escherichia coli [5]): 20 mm
- diameter of the inhibition zone (DIZ) (Staphylococcus aureus [6]): 21.8 mm
- HC50 at 1 h [7]: 891 µg/mL
- Activity (Escherichia coli [9]): 62.2%
- Activity (Escherichia coli [10]): 0.4%
- Activity (Escherichia coli [11]): Active
- Activity (Staphylococcus aureus [12]): Active
- fold change (FC) (Staphylococcus aureus [13]): 2
- fold change (FC) (Staphylococcus aureus [14]): 2
- fold change (FC) (Staphylococcus aureus [15]): 4
- Activity (Staphylococcus aureus [16]): inactive
- Activity (Staphylococcus aureus [17]): inactive
- Activity (Escherichia coli [18]): inactive
- Activity (Escherichia coli [19]): 47.5%
- Activity (Escherichia coli [20]): 66.2%
- Activity (Escherichia coli [21]): 77.3%
- Activity (Escherichia coli [22]): 81.5%
- Activity (Escherichia coli [23]): 93.5%
- Activity (Staphylococcus aureus [24]): 77.5%
- Activity (Staphylococcus aureus [25]): 85.4%
- Activity (Staphylococcus aureus [26]): 91%
- Activity (Staphylococcus aureus [27]): Active
- Activity (Escherichia coli [28]): Active
- Activity (SGC-7901 [29]): 9.71%
- Activity (SGC-7901 [30]): 11.46%
- Activity (SGC-7901 [31]): 50.36%
- Activity (L929 [32]): 85%
- Activity (L929 [33]): 70%
- Activity (L929 [34]): Non-Toxic
- fold change (FC) (Escherichia coli [35]): 2
- fold change (FC) (Escherichia coli [36]): 4
- Activity (Escherichia coli [37]): inactive
- MIC (Staphylococcus aureus [3]): 5 µg/mL (≈ 23.1 µM)
